{"source": "patent US10357529B2", "about": "“Natural formulation for treating hangover” (RVRS, LLC, priority 2016, dated 2019)", "origin": "cited, not measured here", "key": {"[1]": {"tested_on": "GABAAR", "conditions": "1 μM; hippocampus and cultured neurons"}, "[2]": {"tested_on": "rats"}, "[3]": {"tested_on": "BZ-sites on GABAAR", "conditions": "competitive; read-out: IC50, inhibition of BZ-site [3H]flunitrazepam binding"}}, "data": [{"molecule": "O=C1c2c(O)cc(O)cc2O[C@H](c2cc(O)c(O)c(O)c2)[C@H]1O", "note": "[DHM, Dihydromyricetin]", "values": [{"measurement": "effect on EtOH-induced potentiation of GABAAR's and GABAAR plasticity", "setting": "[1]", "value": "antagonized both acute EtOH-induced potentiation of GABAAR's and EtOH exposure/withdrawal-induced GABAAR plasticity"}, {"measurement": "EtOH consumption in an intermittent voluntary EtOH intake paradigm", "setting": "[2]", "value": "greatly reduced EtOH consumption"}, {"measurement": "effect on acute alcohol (EtOH) intoxication and withdrawal signs", "setting": "[2]; 1 mg/kg, i.p. injection", "value": "counteracted acute alcohol (EtOH) intoxication"}, {"measurement": "IC50", "setting": "[3]", "value": 4.36, "unit": "µM"}]}]}
